Legend:
[1] = in vivo; cited from earlier work
[2] = Metabolic clearance and tolerability of iron dextran, intravenous infusion; design: species or system cynomolgus monkeys (Macaca fascicularis); details: cynomolgus monkey, in vivo
Protocol: Experiments on metabolic clearance rates done on cynomolgus monkeys (species Macaca fascicularis) have shown the safe use of large dosages of elemental iron derived from iron dextran. […] The administered iron dextran remained in the monkey plasma for at least 120 hours, at milligram levels. […] (See, U.S. application Ser. No. 10/888,576 incorporated herein in its entirety.) The monkey model clears the iron dextran from the system much more very rapidly, as compared to humans, because of a higher metabolic rate. Therefore, a longer plasma residence time is anticipated in humans, as has been shown in research, such as, for example, Henderson & Hillman, (1969).
Experiments on metabolic clearance rates done on cynomolgus monkeys (species Macaca fascicularis) have shown the safe use of large dosages of elemental iron derived from iron dextran. […] The monkey model clears the iron dextran from the system much more very rapidly, as compared to humans, because of a higher metabolic rate. Therefore, a longer plasma residence time is anticipated in humans, as has been shown in research, such as, for example, Henderson & Hillman, (1969).

[3] = tested on: NCI-H23 lung cells; experiment: In vitro human tumor screen, 3H-thymidine assay; type: cell-based; details: positive control, doxorubicin 1 μM

Row | Compound | clearance rate [1] [mg/h] | time to clearance [1] [days] | side effects (in words) [2] | time remaining in plasma ([2]; iv) | inhibitory effect (in words) [3]
1 | iron dextran [Base Compound] | 10 to 20 | ≤ 3 | few negative side effects, i.e. abdominal swelling | at least 120 hours | 
2 | COc1cccc2c1C(=O)c1c(O)c3c(c(O)c1C2=O)C[C@@](O)(C(=O)CO)C[C@@H]3O[C@H]1C[C@H](N)[C@H](O)[C@H](C)O1 [doxorubicin] |  |  |  |  | high inhibitory effect

— US10328030B2, “Compositions and methods of use for treatment of mammalian diseases” (priority 2004, dated 2019)
